Patent US7405235B2, “Transcription factor modulating compounds and methods of use thereof” (Paratek Pharmaceuticals, Inc., priority 2001, dated 2008)

Target: MarA (Escherichia coli, UniProt P0ACH5)
Test: MarA-activated selective marker (ccdB) cell survival assay, Example 2
Format: cell-based
Design: key: * indicates good inhibition of MarA; ** indicates very good inhibition of MarA
Details: inhibition of MarA: cell survival under conditions of MarA expression (ccdB under MarA-activated promoter)
Description: In the absence of Mar A, the expression of the selective marker would be silent. For example, in the case of regulation of the cytotoxic gene ccdB, the gene would be silent and the cells would survive. Synthesis of MarA from an inducible plasmid in a suitable host would result in the activation of the MarA responsive activatable promoter and expression of the selective marker. In the case of ccdB, the gene would be expressed and result in cell death. Compounds that inhibit MarA would be identified as those that permit cell survival under conditions of MarA expression.
In the absence of MarA, the expression of the selective marker is silent and cells survive. Synthesis of MarA from an inducible plasmid in a bacterial or yeast cell leads to the activation of the inaA promoter, expression of ccdB, and subsequently results in cell death. Compounds that inhibit MarA are those that permit cell survival under conditions of MarA expression. In Table 4, * indicates good inhibition of MarA and ** indicates very good inhibition of MarA.

Sequence of MarA (P0ACH5 whole entry, looked up): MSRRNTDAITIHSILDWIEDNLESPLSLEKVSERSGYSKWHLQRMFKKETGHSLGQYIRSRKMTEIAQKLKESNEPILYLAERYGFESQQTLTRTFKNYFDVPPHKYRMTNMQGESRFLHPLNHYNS

Structure (SMILES)	MarA inhibition class
CCCSc1nnc2c(n1)OC(c1ccc(OC)cc1)Nc1ccccc1-2 (centres unmarked) [K, 6-(4-Methoxy-phenyl)-3-propylsulfanyl-6,7-dihydro-5-oxa-1,2,4,7-tetraaza-dibenzo[a,c]cycloheptene]	*
CCOc1ccc(C2Nc3ccccc3-c3nnc(SC)nc3O2)cc1 (centres unmarked) [B, 6-(4-Ethoxy-phenyl)-3-methylsulfanyl-6,7-dihydro-5-oxa-1,2,4,7-tetraaza-dibenzo[a,c]cycloheptene]	*
